According to US8242145B2, “Cyclic diaryl ether compounds as antagonists of prostaglandin D2 receptors” (Panmira Pharmaceuticals, LLC, priority 2008, dated 2012):
pIC50: −log10 of the molar value.

Assays:
human DP2 receptor = molecular target: T1, human DP2 receptor (Homo sapiens, UniProt Q9Y5Y4); experiment: DP2/CRTH2 radioligand binding assay using [3H]PGD2; settings: hDP2 (CRTH2) binding assay
T1 construct: expressed in transfected cells
T1 sequence (Q9Y5Y4 1-395): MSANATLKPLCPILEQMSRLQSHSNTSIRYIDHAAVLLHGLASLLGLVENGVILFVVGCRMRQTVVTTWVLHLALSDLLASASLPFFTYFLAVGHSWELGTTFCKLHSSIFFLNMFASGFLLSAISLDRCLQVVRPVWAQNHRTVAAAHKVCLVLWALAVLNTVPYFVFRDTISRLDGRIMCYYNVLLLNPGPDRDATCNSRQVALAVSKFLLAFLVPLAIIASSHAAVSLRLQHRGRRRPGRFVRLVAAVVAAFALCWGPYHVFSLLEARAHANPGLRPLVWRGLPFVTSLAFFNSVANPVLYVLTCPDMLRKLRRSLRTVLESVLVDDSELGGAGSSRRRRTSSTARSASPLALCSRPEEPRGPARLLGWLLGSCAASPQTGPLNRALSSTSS
How it was run: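 HEK293 membranes with stable recombinant human DP2, incubated with 1 nM [3H]PGD2 and compound 60 min at room temperature in pH 7.4 HEPES/MnCl2/EDTA buffer, with or without 0.2% human serum albumin.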

[1] = molecular target: T2, recombinant human CRTH2 receptor (Homo sapiens, UniProt Q9Y5Y4); experiment: GTPγS binding assay; assay type: biochemical; settings: +HSA; read-out: hDP2 GTPγS μM (+HSA)
T2 construct: expressed in transfected cells
T2 sequence (Q9Y5Y4 1-395): T1 sequence (Q9Y5Y4 1-395)
How it was run: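 Membranes from CHO cells stably expressing recombinant receptor (~12.5 μg/well), incubated 60 min at 30° C with 0.05 nM [^35S]-GTPγS, 80 nM PGD2, 5 μM GDP in pH 7.4 Hepes buffer with 0.2% human serum albumin. Filter-bound radioactivity counted; specific binding = total minus binding without PGD2; IC50 from titration curves.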

human DP1 receptor = molecular target: T3, human DP1 receptor (Homo sapiens, UniProt Q13258); experiment: DP1 radioligand binding assay using [3H]BWA868C; settings: hDP1 binding
T3 construct: tissue Biological Specialty Corporation; host or cells: human platelets, membranes
T3 sequence (Q13258 1-359): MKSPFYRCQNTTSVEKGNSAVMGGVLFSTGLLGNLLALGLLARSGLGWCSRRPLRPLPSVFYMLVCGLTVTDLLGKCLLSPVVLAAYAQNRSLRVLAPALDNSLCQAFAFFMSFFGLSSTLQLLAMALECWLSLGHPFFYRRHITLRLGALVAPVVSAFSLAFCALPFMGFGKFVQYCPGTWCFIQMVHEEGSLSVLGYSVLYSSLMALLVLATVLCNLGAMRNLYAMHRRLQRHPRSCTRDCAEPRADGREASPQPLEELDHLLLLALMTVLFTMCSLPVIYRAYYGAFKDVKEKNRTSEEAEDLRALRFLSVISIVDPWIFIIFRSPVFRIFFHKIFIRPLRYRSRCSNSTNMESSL
How it was run: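 Human platelet membranes (20 μg protein/well) incubated 60 min at room temperature with 2 nM [3H]BWA868C in 50 mM Hepes, 10 mM MnCl2, 1 mM EDTA, ±0.2% human serum albumin, pH 7.4. Bound label measured after filtration; nonspecific binding defined with 10 μM BW A868C. IC50 from titration curves.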

Compound | pIC50 (human DP2 receptor) | IC50 [1] [µM] | pIC50 (human DP1 receptor)
O=C(O)Cc1cccc(Oc2ccc(Br)cc2CN2CCOC2=O)c1 [Compound 1-3, {3-[4-Bromo-2-(2-oxo-oxazolidin-3-ylmethyl)-phenoxy]-phenyl}-acetic acid] | > 6.52 | 0.3 to 1 | < 6.00
C[C@@H]1[C@H](c2ccc(Cl)cc2)OC(=O)N1Cc1cc(Br)ccc1Oc1cccc(CC(=O)O)c1 [Compound 1-50, (3-{4-Bromo-2-[(4R,5S)-5-(4-chloro-phenyl)-4-methyl-2-oxo-oxazolidin-3-ylmethyl]-phenoxy}-phenyl)-acetic acid] | > 6.52 | 0.3 to 1 | 6.00 to 6.52
C[C@@H]1[C@H](c2cc(C(F)(F)F)cc(C(F)(F)F)c2)OC(=O)N1Cc1cc(Br)ccc1Oc1cccc(CC(=O)O)c1 [Compound 1-52] | > 6.52 | > 1 | < 6.00
O=C(O)Cc1cccc(Oc2ccc(-c3cccnc3)cc2CN2CCOC2=O)c1 [Compound 1-8, {3-[2-(2-Oxo-oxazolidin-3-ylmethyl)-4-pyridin-3-yl-phenoxy]-phenyl}-acetic acid] | > 6.52 | > 1 | < 6.00
COc1ccc(-c2ccc(Oc3cc(CC(=O)O)ccc3OC)c(CN3C(=O)O[C@H](c4ccccc4)[C@@H]3C)c2)cc1 [Compound 1-39, {4-Methoxy-3-[4′-methoxy-3-((4S,5R)-4-methyl-2-oxo-5-phenyl-oxazolidin-3-ylmethyl)-biphenyl-4-yloxy]-phenyl}-acetic acid] | > 6.52 | > 1 | < 6.00
COc1ccc(CC(=O)O)cc1Oc1ccc(Br)cc1CN1C(=O)O[C@H](c2ccccc2)[C@@H]1C [Compound 1-30, {3-[4-Bromo-2-((4S,5R)-4-methyl-2-oxo-5-phenyl-oxazolidin-3-ylmethyl)-phenoxy]-4-methoxy-phenyl}-acetic acid] | > 6.52 | 0.3 to 1 | < 6.00
O=C(O)Cc1cccc(Oc2ccc(Br)cc2CN2C[C@@H](c3ccccc3)OC2=O)c1 [Compound 1-47, {3-[4-Bromo-2-((R)-2-oxo-5-phenyl-oxazolidin-3-ylmethyl)-phenoxy]-phenyl}-acetic acid] | > 6.52 | < 0.3 | 6.00 to 6.52
C[C@@H]1[C@H](c2cc(F)cc(F)c2)OC(=O)N1Cc1cc(Br)ccc1Oc1cccc(CC(=O)O)c1 [Compound 1-51] | > 6.52 | < 0.3 | 6.00 to 6.52
COc1ccc(CC(=O)O)cc1Oc1ccc(-c2ccc(F)cc2)cc1CN1C(=O)O[C@H](c2ccccc2)[C@@H]1C [Compound 1-36, {3-[4′-Fluoro-3-((4S,5R)-4-methyl-2-oxo-5-phenyl-oxazolidin-3-ylmethyl)-biphenyl-4-yloxy]-4-methoxy-phenyl}-acetic acid] | > 6.52 | > 1 | < 6.00
COc1ccc(CC(=O)O)cc1Oc1ccc(-c2cnn(C)c2)cc1CN1C(=O)O[C@H](c2ccccc2)[C@@H]1C [Compound 1-43, {4-Methoxy-3-[2-((4S,5R)-4-methyl-2-oxo-5-phenyl-oxazolidin-3-ylmethyl)-4-(1-methyl-1H-pyrazol-4-yl)-phenoxy]-phenyl}-acetic acid] | > 6.52 | 0.3 to 1 | < 6.00
C[C@H]1[C@@H](c2ccccc2)OC(=O)N1Cc1cc(Br)ccc1Oc1cc(Cl)cc(CC(=O)O)c1 [Compound 1-27, {3-[4-Bromo-2-((4S,5R)-4-methyl-2-oxo-5-phenyl-oxazolidin-3-ylmethyl)-phenoxy]-5-chloro-phenyl}-acetic acid] | > 6.52 | < 0.3 | > 6.52
COc1ccc(CC(=O)O)cc1Oc1ccc(S(C)(=O)=O)cc1CN1C(=O)O[C@H](c2ccccc2)[C@@H]1C [Compound 1-34, {3-[4-Methanesulfonyl-2-((4S,5R)-4-methyl-2-oxo-5-phenyl-oxazolidin-3-ylmethyl)-phenoxy]-4-methoxy-phenyl}-acetic acid] | 6.00 to 6.52 | > 1 | < 6.00

Results, then the compound that gave them:

pIC50 (human DP2 receptor) | IC50 [1] [µM] | pIC50 (human DP1 receptor) | Compound
> 6.52 | > 1 | < 6.00 | COc1ccc(CC(=O)O)cc1Oc1ccc(NC(=O)c2ccc(Cl)cc2)cc1CN1CCOC1=O [Compound 1-91, {3-[4-(4-Chloro-benzoylamino)-2-(2-oxo-oxazolidin-3-ylmethyl)-phenoxy]-4-methoxy-phenyl}-acetic acid]
6.00 to 6.52 | > 1 | < 6.00 | COc1ccc(CC(=O)O)cc1Oc1ccc(Br)cc1CN1C(=O)O[C@@H](c2cc(C(F)(F)F)cc(C(F)(F)F)c2)[C@H]1C [Compound 1-64, (3-{2-[(4R,5S)-5-(3,5-Bis-trifluoromethyl-phenyl)-4-methyl-2-oxo-oxazolidin-3-ylmethyl]-4-bromo-phenoxy}-4-methoxy-phenyl)-acetic acid]
> 6.52 | < 0.3 | < 6.00 | COc1ccc(CC(=O)O)cc1Oc1cc(Br)ccc1CN1C(=O)O[C@@H](c2ccccc2)[C@H]1C [Compound 1-82, {3-[5-Bromo-2-((4R,5S)-4-Methyl-2-oxo-5-phenyl-oxazolidin-3-ylmethyl)-phenoxy]-4-methoxy-phenyl}-acetic acid]
> 6.52 | < 0.3 | < 6.00 | O=C(O)Cc1cccc(Oc2ccc(Br)cc2CN2C(=O)O[C@H]3Cc4ccccc4[C@H]32)c1 [Compound 2-1, {3-[4-Bromo-2-((3aR,8aS)-2-oxo-8,8a-dihydro-3aH-indeno[1,2-d]oxazol-3-ylmethyl)-phenoxy]-phenyl}-acetic acid]
> 6.52 | > 1 | < 6.00 | C[C@@H]1[C@H](c2ccccc2)OC(=O)N1Cc1cc(Br)ccc1Oc1ccc(Cl)c(CC(=O)O)c1 [Compound 1-53, {5-[4-Bromo-2-((4R,5S)-4-methyl-2-oxo-5-phenyl-oxazolidin-3-ylmethyl)-phenoxy]-2-chloro-phenyl}-acetic acid]
> 6.52 | < 0.3 | < 6.00 | COc1ccc(CC(=O)O)cc1Oc1cc(Br)ccc1CN1C(=O)O[C@H](c2ccccc2)[C@@H]1C [Compound 1-81, {3-[5-Bromo-2-((4S,5R)-4-methyl-2-oxo-5-phenyl-oxazolidin-3-ylmethyl)-phenoxy]-4-methoxy-phenyl}-acetic acid]
> 6.52 | < 0.3 | < 6.00 | CCOc1ccc(CC(=O)O)cc1Oc1ccc(Br)cc1CN1C(=O)O[C@@H](c2ccccc2)[C@H]1C [Compound 1-88, {3-[4-Bromo-2-((4R,5S)-4-methyl-2-oxo-5-phenyl-oxazolidin-3-ylmethyl)-phenoxy]-4-ethoxy-phenyl}-acetic acid]
> 6.52 | < 0.3 | < 6.00 | C[C@@H]1[C@H](c2ccccc2)OC(=O)N1Cc1cc(Br)ccc1Oc1cc(F)cc(CC(=O)O)c1 [Compound 1-55, {3-[4-Bromo-2-((4R,5S)-4-methyl-2-oxo-5-phenyl-oxazolidin-3-ylmethyl)-phenoxy]-5-fluoro-phenyl}-acetic acid]
6.00 to 6.52 | > 1 | < 6.00 | C[C@@H]1[C@H](c2ccccc2)OC(=O)N1Cc1cc(Br)ccc1Oc1ccc(C(F)(F)F)c(CC(=O)O)c1 [Compound 1-54, {5-[4-Bromo-2-((4R,5S)-4-methyl-2-oxo-5-phenyl-oxazolidin-3-ylmethyl)-phenoxy]-2-trifluoromethyl-phenyl}-acetic acid]
> 6.52 | < 0.3 | < 6.00 | COc1ccc(CC(=O)O)cc1Oc1ccc(Br)cc1CN1C(=O)O[C@@H](c2cc(F)cc(F)c2)[C@H]1C [Compound 1-63, (3-{4-Bromo-2-[(4R,5S)-5-(3,5-difluoro-phenyl)-4-methyl-2-oxo-oxazolidin-3-ylmethyl]-phenoxy}-4-methoxy-phenyl)-acetic acid]
> 6.52 | < 0.3 | < 6.00 | C[C@@H]1[C@H](c2ccccc2)OC(=O)N1Cc1cc(C(F)(F)F)ccc1Oc1cc(CC(=O)O)ccc1-c1ccccc1 [Compound 1-80, {2-[2-((4R,5S)-4-Methyl-2-oxo-5-phenyl-oxazolidin-3-ylmethyl)-4-trifluoromethyl-phenoxy]-biphenyl-4-yl}-acetic acid]
